row,Compound,melting point [°C]
1,CC(NC(=C(C#N)S(=O)(=O)c1ccc(Cl)cc1)N(C)c1cc(C(F)(F)F)cc(C(F)(F)F)c1)C(C)(C)C (configuration not stated),152 to 154
2,Cc1cccc(Nc2cc(Nc3ccc(OCCO)cc3)ncn2)c1,196 to 199
3,COC(=O)C1CCc2sccc2C1=O (configuration not stated),85 to 86
4,CCOC(=O)C1=C(C)NC(=S)NC1c1cccc([N+](=O)[O-])c1 (configuration not stated),208 to 209
5,CCCc1c(OCCCCCOc2cc(OCCCC(=O)O)ccc2CCC(=O)O)ccc2c1OCCC2=O,163 to 164
6,CCCNC(=O)C1(CCCc2ccccc2)c2ccccc2Sc2ccccc21,130 to 131
7,CCCCOc1c2c(nc3c1cnn3CC)C(O)c1ccccc1CC2 (configuration not stated),163 to 165
8,Clc1cccc(-c2nnc3c4ccc(Cl)cc4c(-c4ccccc4)nn23)c1,227 to 230
9,CC(=O)c1c(O)c(C(C)=O)c(C(C)=O)c2c1Oc1cc(O)ccc1N2,208
10,O=C(c1ccc(Cl)c([N+](=O)[O-])c1)c1ccc(Cl)c([N+](=O)[O-])c1,131 to 132
11,Cc1nc2c(N[C@@H]3c4ccccc4C[C@H]3O)cc(C(=O)N(C)C)cn2c1C (relative stereo),148 to 149
12,COC(=O)c1cnc(N)nc1OC,221
13,COc1ccc(C2=NN(CCCOc3ccccc3)C(=O)[C@H]3CCCC[C@@H]23)cc1OC (relative stereo),78 to 81
14,CC1(O)CSC(=S)N1c1ccc(Cl)cn1 (configuration not stated),95
15,O=C(O)CCCc1ccc(NS(=O)(=O)c2ccccc2)cc1,128 to 130
16,COCOc1cc(NC(=O)OC(C)(C)C)cc2ccccc12,64 to 66
17,N#CC#Cc1ccc(O)cc1,134 to 137
18,COc1ccccc1C(=O)NS(=O)(=O)c1ccc(NC(=O)C2CCCC2)cc1,202 to 206
19,NC(=O)c1ccc(C=CC(=O)N2CCc3c([nH]c4ccccc34)C2c2ccc3c(c2)OCO3)cc1 (configuration not stated),183
20,COCCCCC(=O)c1cc(C(=O)O)c2cc(Cc3ccc(F)cc3)cnc2c1O,216 to 218
21,Fc1cccc(F)c1-c1nc2ccccc2n1Cc1ccccc1,124
22,Cc1cc(Oc2ccc(C(=O)C=CC(=O)O)cc2)ccc1Cl,135 to 136
23,Cc1cccc(-n2c(CCl)nc3ccccc3c2=O)c1,183 to 185
24,CC1(C)C(=O)Oc2ccc3cc(C#N)c(Cn4cncn4)cc3c21,198
25,COc1cc(-c2nc(NC(=O)c3cc4cc(C)ccc4n3CC(=O)O)sc2CCC2CCCCC2)c(OC)cc1Cl,204 to 208
26,O=C(NCc1ccc(F)cc1)c1ccnc(N2CCN(C(F)(F)c3ccc(C(F)F)cc3)C2=O)c1,173 to 175

row,Compound,melting point [°C]
1,Cc1ccc(N=C=O)c(S(=O)(=O)Cl)c1,36 to 38.5
2,CC(C)(NC(=O)C(COCc1ccccc1)NC(=O)c1ccccc1)c1ccccc1 (configuration not stated),88 to 90
3,C=C(c1ccc(OC)c(C)c1)c1ccc(C)c(Br)c1,48 to 51
4,O=C(O)COc1ccc(/C=C/C(=O)C(F)(F)F)cc1,156
5,CCN(c1ccc(C(=O)O)nn1)C(C)c1cc(Br)ccc1OCc1ccccc1 (configuration not stated),129
6,CN(C)c1nc2sc3c(NCc4cccnc4)ncnc3c2c2c1COC(C)(C)C2,250 to 252
7,O=S(=O)(N=CN1CCOCC1)c1nc(-c2ccccc2)ns1,185 to 187
8,CCN(CC)c1ccc(C(=O)C#Cc2ccnc3ccccc23)cc1,163 to 165
9,COc1ccc(C2=C(/C=C/C(=O)O)CCc3cc(OC)ccc32)cc1,222 to 224
10,COc1ccc(C(=O)Nc2ccccc2)cc1NC(=S)Nc1cccc(Cl)c1,165 to 168
11,CC(C)NC(=O)N1CC(Oc2ccc(C(F)(F)F)cc2)C1,151 to 152
12,O=C(Nc1cccc2[nH]ccc12)c1cc(O)cc(Cl)c1,248
13,CN(C(=O)c1ccccc1)C(=N[N+](=O)[O-])NCc1cnc(Cl)s1,170 to 172
14,COc1ccc(NC(=O)c2c(Cl)cccc2Cl)c2nccc(NNC(C)=O)c12,> 250
15,CS(=O)(=O)c1ccc(Br)cc1Br,124 to 126
16,CC(=O)NCCOc1cc(-c2ccccc2)on1,144 to 145
17,O=C(Nc1ccc(C(F)(F)F)cc1)N1CC(c2ccc(Cl)cc2)C(c2ccc(Cl)cc2)N1 (configuration not stated),242 to 243
18,CCOC(=O)C1NCc2[nH]c3cccc(OCc4ccccc4)c3c2C1COC (configuration not stated),170 to 171
19,CCOC(=O)COc1ccc(NC(=O)OC(C)(C)C)cc1C(F)(F)F,104 to 105
20,CCCc1cn(CCO)nc1OCc1ccc2ccccc2n1,61 to 62
21,Cc1cc(O)c(SCc2ccc(F)cc2)c(=O)o1,114 to 118
22,OCCn1cc(C(F)(F)F)nc1-c1ccc(O)cc1,186 to 188
23,O=C(O)c1cc(-c2ccncc2)n[nH]c1=O,> 310
24,CC(C)(C)OC(=O)NCCCn1nnnc1S,75 to 77
25,CC(C)(C=O)CN1CCN(CC(C)(C)C=O)C1=O,78 to 80
26,CCCC1=C(C(=O)OCC)C(c2csc3ccccc23)c2c[nH]nc2N1 (configuration not stated),222

# Reference: a melting point compilation (Tetko et al.; mined from patent text by program, amines drawn as free bases though some values may be those of a salt)
